Earlier results, collected in US12350296B2, “Liquid propolis extract, its formulation and use thereof” (Apiotix Technologies D.O.O., priority 2019, dated 2025).
Like-named read-outs stand apart in the source and are kept apart here.

Test system: subclinical mastitis
Details: for healing (cure) of cases: subclinical mastitis caused by S. uberis

| Compound | bacteriological cure (daily i.mam. application during 8 days) [%] | bacteriological cure (i.mam. application, after 5 days) [%] | healing (cure) of cases (therapy for 5 days) [%] | healing (cure) of cases (therapy for 8 days) [%] | healing (cure) of cases (two-day therapy) [%] |
| --- | --- | --- | --- | --- | --- |
| CO/N=C(\C(=O)N[C@@H]1C(=O)N2C(C(=O)O)=C(CSC(=O)c3ccco3)CS[C@H]12)c1csc(N)n1 [ceftiofur] | 66 | 54 |  |  |  |
| CC[C@@H]1CCN[C@H](C(=O)N[C@@H]([C@H]2O[C@H](SC)[C@H](O)[C@@H](O)[C@H]2O)[C@H](C)Cl)C1 [pirlimycin] |  |  | 68.8 | 80 | 58.1 |
